Laboratory results as given in patent US20130267594A1, “PROLYL HYDROXYLASE INHIBITORS AS RADIATION MITIGATORS AND RADIATION PROTECTORS” (priority 2010, published 2013).

Key:
[1] = tested on: Suv39h1/2−/− cells; assay: Clonogenic cell survival assay after ionizing radiation, Suv39h1/Suv39h2 double knockout MEFs; type: cell-based, mouse
[2] = tested on: H3K9me3; assay: Western blot of H3K9me3 in Suv39h1/2−/− MEFs (FIG. 4A); type: cell-based, mouse; conditions: Suv39h1/2−/− cells, DMOG 100 μM/2hours
Method: Cell lysates and Western blot analysis: Antibodies used: mHif1α (Santa Cruz Biotechnology, CA); hHIF1α (Abcam, CA); H3K9me3 (Millipore, N.Y.); β-actin (Cell Signaling Technology, Mass.); CHD4 and MTA3 (Bethyl Laboratories, Tex.); Suv39h1 (Novus, CA). To prepare nuclear lysates, cells were resuspended in 500 μl buffer A (10 mM Tris, pH8.0/1 mM EDTA, pH8.0/150 mM NaCl/0.5% NP-40/1 mM PMSF/5 μg/ml leupeptin/20 μg/ml aprotinin), incubated on ice for 15 min and centrifuged at 500 g for 5 min at 4° C. Supernatant was removed and the pellet resuspended in buffer B (20 mM Hepes, pH7.9/400 mM NaCl/1 mM EDTA/0.5 mM DTT/1 mM PMSF/5 μg/ml leupeptin/20 μg/ml aprotinin), incubated on ice for 15 min and cleared by centrifugation (21,000 g for 5 min at 4° C.). For western blots, equal amounts of protein (Bradford Protein Assay kit, Bio-Rad Laboratories, CA) were separated by electrophoresis and transferred to nitrocellulose membranes (Bio-Rad Laboratories, CA). Membranes were blocked with Odyssey Blocking Buffer (Li-Cor, NB), incubated with primary antibodies for 3 h, and washed in PBST (PBS and 0.1% Tween-20) followed by goat anti-mouse IR Dye-800CW or goat anti-rabbit IR Dye-680CW secondary antibodies (Li-Cor, NB). Imaging was performed using the Li-Cor Odyssey Near Infra Red System, and analyzed using the Odyssey software system 3.0 package (Li-Cor, NB).

COC(=O)CNC(=O)C(=O)OC [DMOG, dimethyloxalylglycine]
protective effect (clonogenic survival) in SuvDKO MEFs versus normal MEFs ([1]; MEF-SuvDKO, DMOG 1 mM, FIG. 11C): significantly reduced
radioprotective effect (clonogenic survival) ([1]; Suv39h1/h2−/− cells compared to +/+, FIG. 4B): much larger radioprotective effects
levels of H3K9me3 (Western blot) [2]: increased the levels of H3K9me3 in Suv39h1/2−/− cells to a level similar to those seen in Suv39h1/1+/+ cells
